Each structure is given as a SMILES string. pEC50: −log10 of the molar value. Like-named read-outs stand apart in the source and are kept apart here.

For one compound, EC50 results are on record in US7964560B2, “Hepatitis C virus inhibitors” (Bristol-Myers Squibb Company, priority 2008, dated 2011).

In the experiment the test system is HCV replicon in HUH-7 cells. The experiment is described as follows: HCV replicon FRET assay. It is filed as cell-based, Hepatitis C virus (strain 1b). Particulars: Hepatitis C virus. The source says: An HCV replicon whole cell system was established as described by Lohmann, V. et al., Science, 285(5424):110-113 (1999). This system enabled us to evaluate the effects of our HCV Protease compounds on HCV RNA replication. Briefly, using the HCV strain 1b sequence described in the Lohmann paper (Accession number: AJ238799), an HCV cDNA was synthesized by Operon Technologies, Inc. (Alameda, Calif.), and the full-length replicon was then assembled in plasmid pGem9zf(+) (Promega, Madison, Wis.) using standard molecular biology techniques. The replicon consists of (i) the HCV 5′ UTR fused to the first 12 amino acids of the capsid protein, (ii) the neomycin phosphotransferase gene (neo), (iii) the IRES from encephalomyocarditis virus (EMCV), and (iv) HCV NS3 to NS5B genes and the HCV 3′ UTR. Plasmid DNAs were linearized with ScaI and RNA transcripts were synthesized in vitro using the T7 MegaScript transcription kit (Ambion, Austin, Tex.) according to manufacturer's directions. In vitro transcripts of the cDNA were transfected into the human hepatoma cell line, HUH-7. […] Resulting cell lines were characterized for positive and negative strand RNA production and protein production over time.
The HCV replicon FRET assay was developed to monitor the inhibitory effects of compounds described in the disclosure on HCV viral replication. HUH-7 cells, constitutively expressing the HCV replicon, were grown in Dulbecco's Modified Eagle Media (DMEM) (Gibco-BRL) containing 10% Fetal calf serum (FCS) (Sigma) and 1 mg/ml G418 (Gibco-BRL). Cells were seeded the night before (1.5×10^4 cells/well) in 96-well tissue-culture sterile plates. Compound and no compound controls were prepared in DMEM containing 4% FCS, 1:100 Penicillin/Streptomysin (Gibco-BRL), 1:100 L-glutamine and 5% DMSO in the dilution plate (0.5% DMSO final concentration in the assay). Compound/DMSO mixes were added to the cells and incubated for 4 days at 37° C. After 4 days, cells were first assessed for cytotoxicity using alamar Blue (Trek Diagnostic Systems) for a CC50 reading. The toxicity of compound (CC50) was determined by adding 1/10th volume of alamar Blue to the media incubating the cells. After 4 h, the fluorescence signal from each well was read, with an excitation wavelength at 530 nm and an emission wavelength of 580 nm, using the CYTOFLUOR® Series 4000 (Perspective Biosystems). Plates were then rinsed thoroughly with Phosphate-Buffered Saline (PBS) (3 times 150 μl). The cells were lysed with 25 μl of a lysis assay reagent containing an HCV protease substrate (5× cell Luciferase cell culture lysis reagent (PROMEGA® #E153A) diluted to 1× with distilled water, NaCl added to 150 mM final, the FRET peptide substrate (as described for the enzyme assay above) diluted to 10 μM final from a 2 mM stock in 100% DMSO. The plate was then placed into the CYTOFLUOR® 4000 instrument which had been set to 340 nm excitation/490 nm emission, automatic mode for 21 cycles and the plate read in a kinetic mode. EC50 determinations were carried out as described for the IC50 determinations.

By pEC50 is commonly meant the negative decadic logarithm of the EC50, by convention in mol/L. For the compound `C=C[C@@H]1C[C@]1(NC(=O)[C@@H]1C[C@@](SCCCC)(c2ccc(-c3ccccc3)cc2)CN1C(=O)[C@@H](NC(=O)OC(C)(C)C)C(C)(C)C)C(=O)NS(=O)(=O)C1CC1` [Example 1, tert-butyl (S)-1-((2S,4R)-4-(biphenyl-4-yl)-4-(butylthio)-2-((1R,2S)-1-(cyclopropylsulfonylcarbamoyl)-2-vinylcyclopropylcarbamoyl)pyrrolidin-1-yl)-3,3-dimethyl-1-oxobutan-2-ylcarbamate], the pEC50 runs as follows: (96 h, HUH-7 replicon cells, 4 days, read-out: EC50 value in the replicon FRET assay) 8.14; (Huh-7) 7.66 to 8.14.
